Reference: patent US20230085307A1, “PYRIDAZINONE COMPOUND AND HERBICIDE” (NISSAN CHEMICAL CORPORATION, priority 2019, published 2023)

Assays:
[1] = system: barnyard grass; experiment: Test Example 3: herbicidal effect by foliage application, Wagner pot (Table 18, symbol H); format: in vivo, barnyard grass (Echinochloa crus-galli); conditions: 320 g/ha
How it was run: (§1)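 Plants were sown in alluvial soil held under 0.1–0.5 cm standing water and grown 14 days in a greenhouse at 25–30 °C. An emulsifiable formulation, water-diluted to the set dose, was then sprayed onto the foliage, and effects were scored three weeks later using previously defined criteria.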

[2] = system: Chinese sprangletop; experiment: Test Example 3: herbicidal effect by foliage application, Wagner pot (Table 18, symbol D); format: in vivo, chinese sprangletop (Leptochloa chinensis); conditions: 320 g/ha
How it was run: as §1

[3] = system: rice flat sedge; experiment: Test Example 3: herbicidal effect by foliage application, Wagner pot (Table 18, symbol E); format: in vivo, rice flat sedge (Cyperus iria); conditions: 320 g/ha
How it was run: as §1

[4] = system: southern crabgrass; experiment: Test Example 4: herbicidal effect by soil treatment (Table 19, symbol F); format: in vivo, southern crabgrass (Digitaria ciliaris); conditions: amount of applied herbicide 320 g/ha
How it was run: (§2)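 Pre-emergence style soil spray: seeds under ~1.5 cm sterilized diluvial soil received a uniform coat of emulsion diluted to the predetermined herbicide amount. Greenhouse 25–30° C; readout at week three on previously defined criteria.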

[5] = system: green foxtail; experiment: Test Example 4: herbicidal effect by soil treatment (Table 19, symbol G); format: in vivo, green foxtail (Setaria viridis); conditions: amount of applied herbicide 320 g/ha
How it was run: as §2

[6] = system: barnyard grass; experiment: Test Example 4: herbicidal effect by soil treatment (Table 19, symbol H); format: in vivo, barnyard grass (Echinochloa crus-galli); conditions: amount of applied herbicide 320 g/ha
How it was run: as §2

[7] = system: wild oat; experiment: Test Example 4: herbicidal effect by soil treatment (Table 19, symbol I); format: in vivo, wild oat (Avena fatua); conditions: amount of applied herbicide 320 g/ha
How it was run: as §2

[8] = system: blackgrass; experiment: Test Example 4: herbicidal effect by soil treatment (Table 19, symbol J); format: in vivo, blackgrass (Alopecurus myosuroides); conditions: amount of applied herbicide 320 g/ha
How it was run: as §2

[9] = system: Italian ryegrass; experiment: Test Example 4: herbicidal effect by soil treatment (Table 19, symbol K); format: in vivo, Italian ryegrass (Lolium multiflorum); conditions: amount of applied herbicide 320 g/ha
How it was run: as §2

[10] = system: windgrass; experiment: Test Example 4: herbicidal effect by soil treatment (Table 19, symbol L); format: in vivo, windgrass (Apera spica-venti); conditions: amount of applied herbicide 320 g/ha
How it was run: as §2

[11] = system: velvetleaf; experiment: Test Example 4: herbicidal effect by soil treatment (Table 19, symbol M); format: in vivo, velvetleaf (Abutilon theophrasti); conditions: amount of applied herbicide 320 g/ha
How it was run: as §2

[12] = system: redroot pigweed; experiment: Test Example 4: herbicidal effect by soil treatment (Table 19, symbol N); format: in vivo, redroot pigweed (Amaranthus retroflexus); conditions: amount of applied herbicide 320 g/ha
How it was run: as §2

[13] = system: lambsquarters; experiment: Test Example 4: herbicidal effect by soil treatment (Table 19, symbol O); format: in vivo, lambsquarters (Chenopodium album); conditions: amount of applied herbicide 320 g/ha
How it was run: as §2

[14] = system: chickweed; experiment: Test Example 4: herbicidal effect by soil treatment (Table 19, symbol P); format: in vivo, common chickweed (Stellaria media); conditions: amount of applied herbicide 320 g/ha
How it was run: as §2

[15] = system: false cleavers; experiment: Test Example 4: herbicidal effect by soil treatment (Table 19, symbol Q); format: in vivo, false cleavers (Galium spurium); conditions: amount of applied herbicide 320 g/ha
How it was run: as §2

[16] = system: persian speedwell; experiment: Test Example 4: herbicidal effect by soil treatment (Table 19, symbol R); format: in vivo, Persian speedwell (Veronica persica); conditions: amount of applied herbicide 320 g/ha
How it was run: as §2

[17] = system: southern crabgrass; experiment: Test Example 5: herbicidal effect by foliage application, plastic box (Table 20, symbol F); format: in vivo, southern crabgrass (Digitaria ciliaris); conditions: foliage application, 320 g/ha, three weeks after application
How it was run: (§3)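 Plants were sown into sterilized diluvial soil under about 1.5 cm cover and kept in a greenhouse at 25° C. to 30° C. Fourteen days on, foliage received an even spray of the diluted emulsion. Herbicidal or crop effect was judged three weeks afterwards.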

[18] = system: green foxtail; experiment: Test Example 5: herbicidal effect by foliage application, plastic box (Table 20, symbol G); format: in vivo, green foxtail (Setaria viridis); conditions: foliage application, 320 g/ha, three weeks after application
How it was run: as §3

[19] = system: barnyard grass; experiment: Test Example 5: herbicidal effect by foliage application, plastic box (Table 20, symbol H); format: in vivo, barnyard grass (Echinochloa crus-galli); conditions: foliage application, 320 g/ha, three weeks after application
How it was run: as §3

[20] = system: wild oat; experiment: Test Example 5: herbicidal effect by foliage application, plastic box (Table 20, symbol I); format: in vivo, wild oat (Avena fatua); conditions: foliage application, 320 g/ha, three weeks after application
How it was run: as §3

[21] = system: blackgrass; experiment: Test Example 5: herbicidal effect by foliage application, plastic box (Table 20, symbol J); format: in vivo, blackgrass (Alopecurus myosuroides); conditions: foliage application, 320 g/ha, three weeks after application
How it was run: as §3

[22] = system: Italian ryegrass; experiment: Test Example 5: herbicidal effect by foliage application, plastic box (Table 20, symbol K); format: in vivo, Italian ryegrass (Lolium multiflorum); conditions: foliage application, 320 g/ha, three weeks after application
How it was run: as §3

[23] = system: windgrass; experiment: Test Example 5: herbicidal effect by foliage application, plastic box (Table 20, symbol L); format: in vivo, windgrass (Apera spica-venti); conditions: foliage application, 320 g/ha, three weeks after application
How it was run: as §3

[24] = system: velvetleaf; experiment: Test Example 5: herbicidal effect by foliage application, plastic box (Table 20, symbol M); format: in vivo, velvetleaf (Abutilon theophrasti); conditions: foliage application, 320 g/ha, three weeks after application
How it was run: as §3

[25] = system: redroot pigweed; experiment: Test Example 5: herbicidal effect by foliage application, plastic box (Table 20, symbol N); format: in vivo, redroot pigweed (Amaranthus retroflexus); conditions: foliage application, 320 g/ha, three weeks after application
How it was run: as §3

[26] = system: lambsquarters; experiment: Test Example 5: herbicidal effect by foliage application, plastic box (Table 20, symbol O); format: in vivo, lambsquarters (Chenopodium album); conditions: foliage application, 320 g/ha, three weeks after application
How it was run: as §3

[27] = system: chickweed; experiment: Test Example 5: herbicidal effect by foliage application, plastic box (Table 20, symbol P); format: in vivo, common chickweed (Stellaria media); conditions: foliage application, 320 g/ha, three weeks after application
How it was run: as §3

[28] = system: false cleavers; experiment: Test Example 5: herbicidal effect by foliage application, plastic box (Table 20, symbol Q); format: in vivo, false cleavers (Galium spurium); conditions: foliage application, 320 g/ha, three weeks after application
How it was run: as §3

[29] = system: persian speedwell; experiment: Test Example 5: herbicidal effect by foliage application, plastic box (Table 20, symbol R); format: in vivo, Persian speedwell (Veronica persica); conditions: foliage application, 320 g/ha, three weeks after application
How it was run: as §3

Row | SMILES | herbicidal effect on H (barnyard grass), rating 0-5 [1] | herbicidal effect on D (Chinese sprangletop), rating 0-5 [2] | herbicidal effect on E (rice flat sedge), rating 0-5 [3] | herbicidal effect rating, F: southern crabgrass [4] | herbicidal effect rating, G: green foxtail [5] | herbicidal effect rating, H: barnyard grass [6] | herbicidal effect rating, I: wild oat [7] | herbicidal effect rating, J: blackgrass [8] | herbicidal effect rating, K: Italian ryegrass [9] | herbicidal effect rating, L: windgrass [10] | herbicidal effect rating, M: velvetleaf [11] | herbicidal effect rating, N: redroot pigweed [12] | herbicidal effect rating, O: lambsquarters [13] | herbicidal effect rating, P: chickweed [14] | herbicidal effect rating, Q: false cleavers [15] | herbicidal effect rating, R: persian speedwell [16] | herbicidal effect grade, F: southern crabgrass [17] | herbicidal effect grade, G: green foxtail [18] | herbicidal effect grade, H: barnyard grass [19] | herbicidal effect grade, I: wild oat [20] | other results
1 | COc1c(F)cccc1-c1sc2ccccc2c1-c1c(O)c(C)nn(C)c1=O [1-054] | 5 (Herbicidal rate of 90% or more (almost completely withered)) | 3 (Herbicidal rate of 40% or more and less than 70%) | 4 (Herbicidal rate of 70% or more and less than 90%) | 0 (Herbicidal rate of 5% or less (almost no effect)) | 0 (Herbicidal rate of 5% or less (almost no effect)) | 2 (Herbicidal rate of 20% or more and less than 40%) | 0 (Herbicidal rate of 5% or less (almost no effect)) | 3 (Herbicidal rate of 40% or more and less than 70%) | 3 (Herbicidal rate of 40% or more and less than 70%) | 0 (Herbicidal rate of 5% or less (almost no effect)) | 0 (Herbicidal rate of 5% or less (almost no effect)) | 0 (Herbicidal rate of 5% or less (almost no effect)) | 0 (Herbicidal rate of 5% or less (almost no effect)) | 0 (Herbicidal rate of 5% or less (almost no effect)) | 0 (Herbicidal rate of 5% or less (almost no effect)) | 0 (Herbicidal rate of 5% or less (almost no effect)) | 2 (Herbicidal rate of 20% or more and less than 40%) | 4 (Herbicidal rate of 70% or more and less than 90%) | 3 (Herbicidal rate of 40% or more and less than 70%) | 3 (Herbicidal rate of 40% or more and less than 70%) | herbicidal effect grade, J: blackgrass [21]: 0 (Herbicidal rate of 5% or less (almost no effect)); herbicidal effect grade, K: Italian ryegrass [22]: 4 (Herbicidal rate of 70% or more and less than 90%); herbicidal effect grade, L: windgrass [23]: 0 (Herbicidal rate of 5% or less (almost no effect)); herbicidal effect grade, M: velvetleaf [24]: 5 (Herbicidal rate of 90% or more (almost completely withered)); herbicidal effect grade, N: redroot pigweed [25]: 5 (Herbicidal rate of 90% or more (almost completely withered)); herbicidal effect grade, O: lambsquarters [26]: 5 (Herbicidal rate of 90% or more (almost completely withered)); herbicidal effect grade, P: chickweed [27]: 5 (Herbicidal rate of 90% or more (almost completely withered)); herbicidal effect grade, Q: false cleavers [28]: 4 (Herbicidal rate of 70% or more and less than 90%); herbicidal effect grade, R: persian speedwell [29]: 1 (Herbicidal rate of 5% or more and less than 20%)
2 | COc1c(C)cc(-c2sc3ccccc3c2-c2c(O)c(C)nn(C)c2=O)cc1C [1-074] | 3 (Herbicidal rate of 40% or more and less than 70%) | 0 (Herbicidal rate of 5% or less (almost no effect)) | 5 (Herbicidal rate of 90% or more (almost completely withered)) | 0 (Herbicidal rate of 5% or less (almost no effect)) | 0 (Herbicidal rate of 5% or less (almost no effect)) | 0 (Herbicidal rate of 5% or less (almost no effect)) | 0 (Herbicidal rate of 5% or less (almost no effect)) | 0 (Herbicidal rate of 5% or less (almost no effect)) | 0 (Herbicidal rate of 5% or less (almost no effect)) | 0 (Herbicidal rate of 5% or less (almost no effect)) | 0 (Herbicidal rate of 5% or less (almost no effect)) | 0 (Herbicidal rate of 5% or less (almost no effect)) | 0 (Herbicidal rate of 5% or less (almost no effect)) | 0 (Herbicidal rate of 5% or less (almost no effect)) | 0 (Herbicidal rate of 5% or less (almost no effect)) | 3 (Herbicidal rate of 40% or more and less than 70%) | 0 (Herbicidal rate of 5% or less (almost no effect)) | 0 (Herbicidal rate of 5% or less (almost no effect)) | 0 (Herbicidal rate of 5% or less (almost no effect)) | 0 (Herbicidal rate of 5% or less (almost no effect)) | herbicidal effect grade, J: blackgrass [21]: 0 (Herbicidal rate of 5% or less (almost no effect)); herbicidal effect grade, K: Italian ryegrass [22]: 4 (Herbicidal rate of 70% or more and less than 90%); herbicidal effect grade, L: windgrass [23]: 0 (Herbicidal rate of 5% or less (almost no effect)); herbicidal effect grade, M: velvetleaf [24]: 0 (Herbicidal rate of 5% or less (almost no effect)); herbicidal effect grade, N: redroot pigweed [25]: 0 (Herbicidal rate of 5% or less (almost no effect)); herbicidal effect grade, O: lambsquarters [26]: 0 (Herbicidal rate of 5% or less (almost no effect)); herbicidal effect grade, P: chickweed [27]: 5 (Herbicidal rate of 90% or more (almost completely withered)); herbicidal effect grade, Q: false cleavers [28]: 0 (Herbicidal rate of 5% or less (almost no effect)); herbicidal effect grade, R: persian speedwell [29]: 5 (Herbicidal rate of 90% or more (almost completely withered))
